Experimental data taken from US20030082525A1, “Five-Helix protein” (priority 1999, published 2003).

Experiments:
[1] = system: HIV-1 envelope-mediated membrane fusion (CHO cells expressing gp160 and Tat with HELA cells expressing CD4 and coreceptors); assay: Cell-cell fusion assay (syncytia formation); format: cell-based; conditions: 200 nM 5-Helix or 6-Helix mixed with C34 at 100, 166, 190 and 210 nM
Method: Assays were carried out to assess the ability of 5-Helix to interact with the C-region of gp41 and inhibit function of the fusion protein. This inhibition of membrane fusion by 5-Helix and 6-Helix was assessed using a cell-based assay. Proteins 5-Helix and 6-Helix are serially diluted in modified DMEM media with 5% FCS and aliquoted into slide chambers. HELA cells (4×10^4) expressing CD4 and coreceptors and containing a β-galactosidase gene under the control of the Tat promoter are added. CHO cells (2×10^4) expressing gp160 (precursor protein to gp120/gp41) and Tat are also added. The 400 μl miniculture is incubated at 37° C. for 8 to 24 hours; fused cells (syncytia) will transcribe and translate β-galactosidase. The cells are fixed in gluteraldehyde and exposed to X-gal/Fe solution for one hour. Syncytia that contain β-galactosidase turn blue-green. […]
All data in FIGS. 3A-3C were generated using His-tagged 5-Helix (see Example 1). […] Following two days of incubation at 37° C., the cells were harvested in […] lysis buffer (Luciferase Assay System, Promega), of which […] was analyzed per manufacturer's protocol. The IC50 values were calculated by fitting the 5-Helix titration data to a Langmuir function [normalized luciferase activity=1/(1+[5−Helix]/IC50)].

[2] = target: His-tagged C-peptide C37-H6 (C-peptide region of gp41) (Human immunodeficiency virus type 1 group M subtype B, UniProt P04578); conditions: 150 μM C34 added to 16 μM 5-Helix and 30 μM C37-H6
Method: The solution was added to 10 ml of Ni-NTA agarose and incubated at room temperature for 10 minutes. After the unbound supernatant was removed, the beads were washed twice with 1 ml TBS and then eluted with 500 mM imidazole. The Ni-bound and unbound samples were run on a 16.5% Tris-Tricine polyacrylamide gel (Biorad) and stained with Gel-code Blue (Pierce).

[3] = system: HIV-1 envelope-mediated membrane fusion (CHO cells expressing gp160 and Tat with HELA cells expressing CD4 and coreceptors); conditions: number of syncytia; Chan et al. 1998; read-out: IC50 of C34 in cell-cell fusion assay; cited from earlier work
[4] = target: HIV gp41 (from gp160, strain not stated in the assay text) (HIV-1); assay: cell-based or functional assay

## C34: Peptide corresponding to the C-peptide region of HIV gp41 (W628 to L661); chemically synthesized, no His-tag
[1]
  Syncytia formation in mixing (competition) experiments (in words): blocks all syncytia formation
[2]
  Competition of untagged C-peptide for 5-Helix/C37-H6 precipitation (in words): substantially reduces the amount of precipitated 5-Helix
[3]
  IC50: 0.55 ± 0.03 nM

## GGHTTWMEWDREINNYTSLIHSLIEESQNQQEKNEQELLGGHHHHHH (modifications not checked) [His-tagged C-peptide C37-H6]
[4]
  IC50, cell-cell fusion assay: 1 nM
